# From patent EP0564248A1, “N-(2-hydroxyethyl)-N-bis(methylenephosphonic acid) and corresponding N-oxide thereof for high pH scale control” (Calgon Corporation, priority 1992, dated 1993)
# Test: CaCO3 scale inhibition at pH 9 and 300X calcite saturation (% inhibition by calcium titration, Schwarzenbach method)
# Experimental: PROCEDURE: Scaling water containing 250 mg/L of CO (-2)/(3) [formula] and 600 mg/L of alkalinity at a pH of 9.0 and 55°C was used to evaluate scale inhibition performance of test solutions over a 24 hr period. Test solutions were analyzed by withdrawing 10 g of test solution and adding it to the appropriate container through a 0.2 µ filter, titrating for calcium, and calculating % inhibition by the Schwarzenbach method.
smiles,measurement,setting,value
"O=P(O)(O)CN(CCO)CP(=O)(O)O [Sample No. 1, N-(2-hydroxyethyl)-N-bis(methylenephosphonic acid)]",scale inhibition,"10% Excess Ca/Alk, 25ppm",67.8%
same,scale inhibition,"10% Excess Ca/Alk, 50ppm",85.6%
same,scale inhibition,"60°C, 50ppm",82.6%
same,scale inhibition,"pH 9, 300X CaCO₃, 50ppm, 24hrs",90.8%
same,scale inhibition,"pH 9, 300X CaCO₃, 50ppm, 4 days",87.5%
